The results in this text go back to ChEMBL document CHEMBL1671860, “Role of Cj1211 in natural transformation and transfer of antibiotic resistance determinants in Campylobacter jejuni” (2008).

Converted amounts (≈) assume the structure as drawn. The source made the active and inactive calls. The rule behind the calls is not given here.

The term MIC denotes the lowest concentration found to suppress growth. Low values mean greater potency, high ones weaker potency.

For experiment [1], the system named is Campylobacter jejuni. The experiment in a line: Antibacterial activity against Campylobacter jejuni JB201 infected in chicken assessed as decrease in bacterial colonization at 50 mg/L. It is filed as functional, organism-based.
In experiment [2] the test system is Campylobacter. The experiment in a line: Antibacterial activity against Campylobacter by Etest. It is filed as functional.
The test system of experiment [3] is Campylobacter jejuni. The experiment in a line: Antibacterial activity against Cj1211-positive Campylobacter jejuni harboring aphA3 and tet(O) genes. It is filed as functional.
The subject of experiment [4] is Campylobacter jejuni. Kind of experiment: Antibacterial activity against Cj1211-negative Campylobacter jejuni harboring aphA3 and tet(O) genes. The class given is functional.

For the compound `CCN1CCN(c2cc3c(cc2F)c(=O)c(C(=O)O)cn3C2CC2)CC1`, the result in experiment [1] was Active. `O=C(O)c1cn(C2CC2)c2cc(N3CCNCC3)c(F)cc2c1=O` [CIPROFLOXACIN] showed an MIC in experiment [2] of over 32 µg/mL. Consider `NC[C@H]1O[C@H](O[C@H]2[C@H](O)[C@@H](O[C@H]3O[C@H](CO)[C@@H](O)[C@H](N)[C@H]3O)[C@H](N)C[C@@H]2N)[C@H](O)[C@@H](O)[C@@H]1O` [KANAMYCIN], for which the minimum inhibitory concentration (MIC) in experiment [3] and in experiment [4] was over 256 µg/mL throughout. On to `CN(C)[C@@H]1C(O)=C(C(N)=O)C(=O)[C@@]2(O)C(O)=C3C(=O)c4c(O)cccc4[C@@](C)(O)[C@H]3C[C@@H]12` [TETRACYCLINE], for which the MIC in experiment [3] and in experiment [4] was 16 µg/mL (≈ 36 µM) throughout.
